The record followed here is ChEMBL document CHEMBL1201862, “PubChem BioAssay data set” (2004).

Assay [1] has as its target T1, Sphingosine 1-phosphate receptor 4 (Homo sapiens, UniProt O95977).
T1 sequence (O95977 whole entry): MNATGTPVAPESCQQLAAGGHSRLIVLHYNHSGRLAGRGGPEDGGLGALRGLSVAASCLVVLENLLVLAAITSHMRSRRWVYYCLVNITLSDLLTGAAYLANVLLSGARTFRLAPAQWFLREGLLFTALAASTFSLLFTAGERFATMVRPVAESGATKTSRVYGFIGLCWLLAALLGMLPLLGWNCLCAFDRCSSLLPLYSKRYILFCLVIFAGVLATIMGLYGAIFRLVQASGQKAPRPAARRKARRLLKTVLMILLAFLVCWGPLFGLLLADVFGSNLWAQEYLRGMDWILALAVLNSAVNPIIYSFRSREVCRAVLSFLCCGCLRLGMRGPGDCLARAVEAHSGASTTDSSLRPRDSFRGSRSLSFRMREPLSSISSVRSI
In words: S1P4 receptor antagonists, human, late-stage follow-up, cell-based, fluorescence, synthesized analogues (AID 2346). Type of assay: functional.

The target of assay [2] is Sphingosine 1-phosphate receptor 1 (Homo sapiens, UniProt P21453). The experiment in a line: Late stage counterscreen assay for S1P4 antagonists: Fluorescence dose response cell-based screening assay for antagonists of the Sphingosine 1-Phosphate Receptor 1 (S1P1). [Related pubchem assays (depositor defined):AID1510, AID1524, AID1692, AID1853, AID2332, AID489009, AID489017]. Type of assay: functional. Background: Counterscreens check selectivity or assay interference.
Sphingosine 1-phosphate receptor 1, sequence (P21453 whole entry): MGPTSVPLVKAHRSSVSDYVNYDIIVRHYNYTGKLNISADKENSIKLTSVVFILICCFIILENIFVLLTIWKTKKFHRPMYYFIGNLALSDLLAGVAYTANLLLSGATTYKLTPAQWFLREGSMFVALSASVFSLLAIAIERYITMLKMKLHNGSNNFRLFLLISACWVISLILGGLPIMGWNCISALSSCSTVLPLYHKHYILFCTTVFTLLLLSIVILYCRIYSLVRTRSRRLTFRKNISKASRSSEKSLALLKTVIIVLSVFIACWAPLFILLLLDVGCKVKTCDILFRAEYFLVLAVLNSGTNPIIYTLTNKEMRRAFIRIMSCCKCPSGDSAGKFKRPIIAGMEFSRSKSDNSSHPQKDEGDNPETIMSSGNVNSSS

Assay [3] has as its target Sphingosine 1-phosphate receptor 5 (Homo sapiens, UniProt Q9H228). The experiment in a line: Late stage counterscreen assay for S1P4 antagonists: Fluorescence dose response cell-based screening assay for antagonists of the Sphingosine 1-Phosphate Receptor 5 (S1P5). [Related pubchem assays (depositor defined):AID1510, AID1524, AID1692, AID1853, AID2332, AID489009, AID489017]. Type of assay: functional.

The target of assay [4] is Sphingosine 1-phosphate receptor 3 (Homo sapiens, UniProt Q99500). The experiment in a line: Late stage counterscreen assay for S1P4 antagonists: Fluorescence dose response cell-based screening assay for antagonists of the Sphingosine 1-Phosphate Receptor 3 (S1P3). [Related pubchem assays (depositor defined):AID1510, AID1524, AID1692, AID1853, AID2332, AID489009, AID489017]. It is filed as functional.
Sphingosine 1-phosphate receptor 3, sequence (Q99500 whole entry): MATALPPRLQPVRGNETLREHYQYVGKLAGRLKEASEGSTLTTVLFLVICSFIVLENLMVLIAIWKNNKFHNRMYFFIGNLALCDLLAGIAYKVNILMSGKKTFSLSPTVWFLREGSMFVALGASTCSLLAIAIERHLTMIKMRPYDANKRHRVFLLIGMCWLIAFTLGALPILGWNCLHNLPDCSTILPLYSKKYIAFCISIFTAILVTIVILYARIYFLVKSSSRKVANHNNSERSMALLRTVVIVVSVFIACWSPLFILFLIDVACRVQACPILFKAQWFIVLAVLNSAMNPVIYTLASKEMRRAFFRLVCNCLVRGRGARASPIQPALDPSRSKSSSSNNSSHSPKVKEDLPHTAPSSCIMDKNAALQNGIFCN

The target in assay [5] is Sphingosine 1-phosphate receptor 2 (Homo sapiens, UniProt O95136). The experiment in a line: Late stage counterscreen assay for S1P4 antagonists: Fluorescence dose response cell-based screening assay for antagonists of the Sphingosine 1-Phosphate Receptor 2 (S1P2). [Related pubchem assays (depositor defined):AID1510, AID1524, AID1692, AID1853, AID2332, AID489009, AID489017]. Type of assay: functional.
Sphingosine 1-phosphate receptor 2, sequence (O95136 whole entry): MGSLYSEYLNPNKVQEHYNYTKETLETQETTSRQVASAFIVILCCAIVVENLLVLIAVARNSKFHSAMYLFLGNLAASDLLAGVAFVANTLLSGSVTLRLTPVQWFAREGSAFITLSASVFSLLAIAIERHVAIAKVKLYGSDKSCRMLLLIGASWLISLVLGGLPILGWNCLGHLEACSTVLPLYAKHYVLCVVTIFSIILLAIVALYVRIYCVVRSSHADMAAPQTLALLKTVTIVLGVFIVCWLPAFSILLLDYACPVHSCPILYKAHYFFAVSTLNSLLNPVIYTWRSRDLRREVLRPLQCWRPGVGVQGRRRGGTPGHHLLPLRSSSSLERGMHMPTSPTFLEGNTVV

Assay [6] has as its target Intestinal-type alkaline phosphatase (Mus musculus, UniProt P24822). The experiment in a line: PubChem AID 488785. Type of assay: functional.
For assay [7], the target named is T2, Alkaline phosphatase, tissue-nonspecific isozyme (Homo sapiens, UniProt P05186).
T2 sequence (P05186 whole entry): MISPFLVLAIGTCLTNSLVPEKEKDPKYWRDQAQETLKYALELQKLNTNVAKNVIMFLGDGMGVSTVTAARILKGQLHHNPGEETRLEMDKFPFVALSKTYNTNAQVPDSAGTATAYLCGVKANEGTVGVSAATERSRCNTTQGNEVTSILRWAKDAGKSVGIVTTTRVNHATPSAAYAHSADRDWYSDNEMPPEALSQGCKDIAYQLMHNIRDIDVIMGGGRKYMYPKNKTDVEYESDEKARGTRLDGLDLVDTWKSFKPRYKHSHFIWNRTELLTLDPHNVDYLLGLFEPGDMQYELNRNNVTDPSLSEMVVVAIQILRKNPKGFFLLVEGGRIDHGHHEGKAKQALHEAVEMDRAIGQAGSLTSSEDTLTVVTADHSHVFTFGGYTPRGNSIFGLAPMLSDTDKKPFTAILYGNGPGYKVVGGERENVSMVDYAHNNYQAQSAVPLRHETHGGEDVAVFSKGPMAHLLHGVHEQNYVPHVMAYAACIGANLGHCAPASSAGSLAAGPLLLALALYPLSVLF
The experiment in a line: TNAP enzyme inhibition by screening hits, dose response, selectivity assay for mouse IAP inhibitor project, biochemical, human TNAP, uHTS hits (AID 488906). Type of assay: functional.

The subject of the next assay is Streptococcus. In words: Group A Streptococcus viability loss, dose response, counter-screen for streptokinase expression inhibitor project, luminescence, BacTiterGlo (AID 1915).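 Also: potency for reduction of bacterial viability or growth.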 Type of assay: functional, organism-based.
The subject of assay [8] is Streptococcus sp. 'group A'. The experiment in a line: growth inhibition of control SK(-) GAS strain, dose response, counter-screen for streptokinase expression inhibitor project, luminescence, kanamycin, BacTiterGlo, confirmation (AID 1900). Type of assay: functional, organism-based.
Assay [9] has as its target Intestinal-type alkaline phosphatase (Homo sapiens, UniProt P09923). In words: inhibition of human intestinal alkaline phosphatase – biochemical, dose response (AID 488876). Type of assay: functional.
The target in a further assay is T3, Streptokinase A (Streptococcus pyogenes serotype M1, UniProt P10520).
T3 sequence (P10520 whole entry): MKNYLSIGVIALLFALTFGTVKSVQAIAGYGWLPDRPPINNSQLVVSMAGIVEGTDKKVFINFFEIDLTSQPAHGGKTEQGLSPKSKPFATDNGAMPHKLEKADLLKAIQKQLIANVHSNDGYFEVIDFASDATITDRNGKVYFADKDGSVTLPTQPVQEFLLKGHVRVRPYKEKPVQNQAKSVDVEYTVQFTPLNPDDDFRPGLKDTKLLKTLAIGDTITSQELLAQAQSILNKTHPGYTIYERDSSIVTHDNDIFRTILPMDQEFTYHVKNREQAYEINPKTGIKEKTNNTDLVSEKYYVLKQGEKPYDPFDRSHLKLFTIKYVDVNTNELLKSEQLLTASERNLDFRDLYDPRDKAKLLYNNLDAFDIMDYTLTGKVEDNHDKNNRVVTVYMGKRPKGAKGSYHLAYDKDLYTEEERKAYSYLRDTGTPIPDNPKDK
In words: S. pyogenes streptokinase expression inhibitors, potency, dose response, plasminogen activation absorbance, OD405 (AID 1914).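 Also: secreted streptokinase activity via plasminogen activation per viability signal from cell pellet.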 It is filed as functional, Streptococcus pyogenes M1 GAS.

The target of a further assay is Hexokinase-1 (Homo sapiens, UniProt P19367). In words: hexokinase 1 activators, dose response, selectivity assay for HKDC1 activator project, biochemical (AID 504762). Type of assay: functional.
Hexokinase-1, sequence (P19367 whole entry): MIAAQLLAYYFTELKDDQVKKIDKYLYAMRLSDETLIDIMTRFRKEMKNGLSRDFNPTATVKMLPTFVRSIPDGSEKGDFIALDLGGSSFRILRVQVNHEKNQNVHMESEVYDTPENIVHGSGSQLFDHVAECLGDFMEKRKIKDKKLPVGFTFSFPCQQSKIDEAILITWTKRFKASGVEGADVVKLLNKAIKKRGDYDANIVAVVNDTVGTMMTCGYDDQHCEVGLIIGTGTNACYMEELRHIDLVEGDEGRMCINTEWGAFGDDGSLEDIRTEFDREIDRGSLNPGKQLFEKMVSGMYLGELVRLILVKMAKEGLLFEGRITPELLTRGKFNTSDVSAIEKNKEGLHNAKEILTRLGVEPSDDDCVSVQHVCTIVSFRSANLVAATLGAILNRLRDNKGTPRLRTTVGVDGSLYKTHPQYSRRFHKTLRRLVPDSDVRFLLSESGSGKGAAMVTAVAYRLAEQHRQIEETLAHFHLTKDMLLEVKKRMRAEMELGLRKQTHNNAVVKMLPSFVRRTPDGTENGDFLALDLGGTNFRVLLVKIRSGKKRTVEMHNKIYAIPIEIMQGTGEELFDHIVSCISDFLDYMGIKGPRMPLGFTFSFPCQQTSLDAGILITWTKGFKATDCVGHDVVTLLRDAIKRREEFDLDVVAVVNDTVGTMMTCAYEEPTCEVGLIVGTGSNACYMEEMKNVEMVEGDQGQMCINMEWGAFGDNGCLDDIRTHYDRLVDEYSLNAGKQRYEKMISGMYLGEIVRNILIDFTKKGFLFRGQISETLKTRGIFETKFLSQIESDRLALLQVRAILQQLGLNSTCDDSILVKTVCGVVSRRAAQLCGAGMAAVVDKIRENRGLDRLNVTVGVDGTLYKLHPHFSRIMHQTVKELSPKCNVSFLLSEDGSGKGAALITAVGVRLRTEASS
The target in assay [10] is T4, Histone-lysine N-methyltransferase NSD2 (Homo sapiens, UniProt O96028).
T4 sequence (O96028 whole entry): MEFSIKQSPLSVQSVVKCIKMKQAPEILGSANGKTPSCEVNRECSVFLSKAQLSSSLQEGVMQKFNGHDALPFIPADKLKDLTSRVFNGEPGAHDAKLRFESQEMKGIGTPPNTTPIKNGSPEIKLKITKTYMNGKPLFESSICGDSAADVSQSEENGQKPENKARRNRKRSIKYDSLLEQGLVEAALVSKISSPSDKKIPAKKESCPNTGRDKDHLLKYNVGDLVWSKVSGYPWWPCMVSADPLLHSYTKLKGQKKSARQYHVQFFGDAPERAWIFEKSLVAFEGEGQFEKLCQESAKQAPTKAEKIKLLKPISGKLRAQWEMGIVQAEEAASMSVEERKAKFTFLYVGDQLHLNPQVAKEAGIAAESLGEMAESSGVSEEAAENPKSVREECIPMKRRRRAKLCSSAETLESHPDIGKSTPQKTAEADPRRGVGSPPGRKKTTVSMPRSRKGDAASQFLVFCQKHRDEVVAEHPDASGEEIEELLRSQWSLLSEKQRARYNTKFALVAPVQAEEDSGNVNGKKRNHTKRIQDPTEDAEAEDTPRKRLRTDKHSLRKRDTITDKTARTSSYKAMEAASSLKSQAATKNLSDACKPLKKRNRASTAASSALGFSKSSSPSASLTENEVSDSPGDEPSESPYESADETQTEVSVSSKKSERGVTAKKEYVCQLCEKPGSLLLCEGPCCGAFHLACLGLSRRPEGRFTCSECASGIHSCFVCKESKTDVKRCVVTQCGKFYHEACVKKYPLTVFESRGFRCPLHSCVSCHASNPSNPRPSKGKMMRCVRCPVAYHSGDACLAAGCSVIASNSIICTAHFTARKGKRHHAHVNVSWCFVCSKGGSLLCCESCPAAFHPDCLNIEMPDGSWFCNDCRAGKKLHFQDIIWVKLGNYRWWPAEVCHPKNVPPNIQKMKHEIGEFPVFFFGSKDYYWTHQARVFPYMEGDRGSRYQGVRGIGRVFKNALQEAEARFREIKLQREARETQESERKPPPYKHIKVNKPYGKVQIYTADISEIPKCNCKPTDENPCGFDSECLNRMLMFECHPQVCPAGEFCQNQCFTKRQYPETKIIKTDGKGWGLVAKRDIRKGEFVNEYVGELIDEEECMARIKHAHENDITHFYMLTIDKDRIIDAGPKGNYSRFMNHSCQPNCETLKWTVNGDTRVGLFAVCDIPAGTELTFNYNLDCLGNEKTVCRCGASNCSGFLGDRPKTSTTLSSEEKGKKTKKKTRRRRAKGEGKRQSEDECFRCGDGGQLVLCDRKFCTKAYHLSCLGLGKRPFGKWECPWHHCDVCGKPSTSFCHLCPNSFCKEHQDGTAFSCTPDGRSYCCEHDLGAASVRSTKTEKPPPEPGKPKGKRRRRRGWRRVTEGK
It is filed as biochemical.

The nature of assay [11]: Fluorescence-based cell-based high throughput dose response assay for inhibitors of the interaction of nucleotide-binding oligomerization domain containing 2 (NOD2) and the receptor-interacting serine-threonine kinase 2 (RIPK2). Type of assay: functional. Particulars: Homo sapiens.
The next assay addresses Hexokinase HKDC1 (Homo sapiens, UniProt Q2TB90). In words: HKDC1 hexokinase activators, dose response, biochemical, W721R variant (AID 504730). It is filed as functional.
Assay [12] deals with Scavenger receptor class B member 1 (Mus musculus, UniProt Q61009). The experiment in a line: inhibitors of SR-BI mediated HDL lipid uptake, dose response, ldlA[mSR-BI] cells, fluorescence, cherry pick (AID 493194).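 Also: cellular uptake of fluorescent DiI-labeled HDL measured as cell fluorescence.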 It is filed as functional, cell-based.
Scavenger receptor class B member 1, sequence (Q61009 whole entry): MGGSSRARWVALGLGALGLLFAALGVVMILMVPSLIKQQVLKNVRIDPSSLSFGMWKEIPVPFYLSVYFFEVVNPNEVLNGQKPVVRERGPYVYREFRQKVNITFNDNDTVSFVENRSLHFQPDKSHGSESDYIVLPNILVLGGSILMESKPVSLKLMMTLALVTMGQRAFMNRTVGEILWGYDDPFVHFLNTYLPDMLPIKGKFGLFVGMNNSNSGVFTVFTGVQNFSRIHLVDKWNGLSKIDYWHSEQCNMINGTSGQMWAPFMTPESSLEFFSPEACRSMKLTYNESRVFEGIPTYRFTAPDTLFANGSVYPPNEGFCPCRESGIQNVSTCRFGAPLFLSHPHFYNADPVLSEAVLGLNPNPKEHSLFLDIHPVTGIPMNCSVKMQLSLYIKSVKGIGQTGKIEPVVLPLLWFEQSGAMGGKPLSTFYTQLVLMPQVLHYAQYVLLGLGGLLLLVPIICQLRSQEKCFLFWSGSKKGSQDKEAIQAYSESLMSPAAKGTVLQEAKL
The next assay deals with Tumor necrosis factor (Homo sapiens, UniProt P01375). The experiment in a line: TNFa-triggered NF-kB activation inhibitors, SAR follow-up, cell-based, revised (AID 2337). Type of assay: functional.
Assay [13] concerns the target Nucleotide-binding oligomerization domain-containing protein 2 (Homo sapiens, UniProt Q9HC29). The experiment in a line: PubChem AID 2334. It is filed as functional.
For a further assay, the system named is HEK293. In words: cells. Particulars: Homo sapiens.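 Also: cells exposed to compound for 14 hours overnight before viability readout.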
Assay [14] concerns the target Nucleotide-binding oligomerization domain-containing protein 1 (Homo sapiens, UniProt Q9Y239). The experiment in a line: NOD1 signaling inhibitors, SAR follow-up, revised (AID 2333). It is filed as functional.
Assay [15] deals with Potassium voltage-gated channel subfamily KQT member 2 (Rattus norvegicus, UniProt O88943). In words: KCNQ2 channel activators, analog series, SAR follow-up, automated patch clamp, KCNQ2-CHO cells (AID 493113). Type of assay: functional. (Patch clamp records ionic current or voltage across a cell membrane.)

Calls of active or inactive are those of the source.

Nucleotide-binding oligomerization domain-containing protein 1, sequence (Q9Y239 whole entry, the tested form may be a part): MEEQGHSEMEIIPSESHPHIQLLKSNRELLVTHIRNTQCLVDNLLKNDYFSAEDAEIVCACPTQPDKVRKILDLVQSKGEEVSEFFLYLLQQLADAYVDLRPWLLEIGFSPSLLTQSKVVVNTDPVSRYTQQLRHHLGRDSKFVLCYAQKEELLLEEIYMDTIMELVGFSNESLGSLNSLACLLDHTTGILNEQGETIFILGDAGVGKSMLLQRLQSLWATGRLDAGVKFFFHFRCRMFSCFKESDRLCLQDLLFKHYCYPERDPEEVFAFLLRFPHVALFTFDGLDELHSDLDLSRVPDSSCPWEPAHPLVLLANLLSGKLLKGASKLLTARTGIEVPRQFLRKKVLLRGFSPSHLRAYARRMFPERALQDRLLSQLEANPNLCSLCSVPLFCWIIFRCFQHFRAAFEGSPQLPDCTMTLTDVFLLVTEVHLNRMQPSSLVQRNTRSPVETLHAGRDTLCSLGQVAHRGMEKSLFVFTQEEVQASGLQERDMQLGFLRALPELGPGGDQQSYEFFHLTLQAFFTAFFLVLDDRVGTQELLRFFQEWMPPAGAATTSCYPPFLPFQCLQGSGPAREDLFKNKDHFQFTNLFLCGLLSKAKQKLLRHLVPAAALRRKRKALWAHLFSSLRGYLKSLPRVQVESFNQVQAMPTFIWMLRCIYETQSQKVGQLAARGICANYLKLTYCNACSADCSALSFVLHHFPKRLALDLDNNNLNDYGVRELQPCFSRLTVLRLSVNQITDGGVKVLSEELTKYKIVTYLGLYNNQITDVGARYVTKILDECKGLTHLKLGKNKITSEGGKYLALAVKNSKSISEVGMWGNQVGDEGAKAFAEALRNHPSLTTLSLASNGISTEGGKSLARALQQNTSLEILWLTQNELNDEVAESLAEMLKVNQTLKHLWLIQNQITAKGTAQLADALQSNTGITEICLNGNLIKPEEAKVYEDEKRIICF
Hexokinase HKDC1, sequence (Q2TB90 whole entry): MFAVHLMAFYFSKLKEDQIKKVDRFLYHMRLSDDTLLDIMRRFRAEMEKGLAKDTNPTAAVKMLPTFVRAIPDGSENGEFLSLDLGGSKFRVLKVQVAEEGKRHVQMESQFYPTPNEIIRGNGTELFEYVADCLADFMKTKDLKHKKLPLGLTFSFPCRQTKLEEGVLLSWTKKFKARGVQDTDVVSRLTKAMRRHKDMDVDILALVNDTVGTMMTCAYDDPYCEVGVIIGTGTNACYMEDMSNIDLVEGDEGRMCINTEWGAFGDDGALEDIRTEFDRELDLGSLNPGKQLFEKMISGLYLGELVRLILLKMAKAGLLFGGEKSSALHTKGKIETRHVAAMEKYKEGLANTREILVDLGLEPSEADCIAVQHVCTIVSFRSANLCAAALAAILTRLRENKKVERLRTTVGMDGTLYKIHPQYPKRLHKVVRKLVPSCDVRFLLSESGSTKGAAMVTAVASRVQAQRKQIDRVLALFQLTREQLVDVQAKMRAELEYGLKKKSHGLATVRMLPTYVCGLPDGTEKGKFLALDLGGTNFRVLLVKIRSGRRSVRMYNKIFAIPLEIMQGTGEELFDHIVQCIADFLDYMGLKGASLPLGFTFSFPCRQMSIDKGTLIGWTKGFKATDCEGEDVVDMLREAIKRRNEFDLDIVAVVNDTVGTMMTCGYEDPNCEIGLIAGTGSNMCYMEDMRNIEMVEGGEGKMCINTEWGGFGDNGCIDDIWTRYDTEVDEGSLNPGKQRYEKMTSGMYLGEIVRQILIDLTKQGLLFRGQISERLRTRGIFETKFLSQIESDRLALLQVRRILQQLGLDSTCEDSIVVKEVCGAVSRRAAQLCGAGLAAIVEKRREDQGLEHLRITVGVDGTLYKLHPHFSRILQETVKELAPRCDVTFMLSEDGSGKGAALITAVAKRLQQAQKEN
Sphingosine 1-phosphate receptor 5, sequence (Q9H228 whole entry): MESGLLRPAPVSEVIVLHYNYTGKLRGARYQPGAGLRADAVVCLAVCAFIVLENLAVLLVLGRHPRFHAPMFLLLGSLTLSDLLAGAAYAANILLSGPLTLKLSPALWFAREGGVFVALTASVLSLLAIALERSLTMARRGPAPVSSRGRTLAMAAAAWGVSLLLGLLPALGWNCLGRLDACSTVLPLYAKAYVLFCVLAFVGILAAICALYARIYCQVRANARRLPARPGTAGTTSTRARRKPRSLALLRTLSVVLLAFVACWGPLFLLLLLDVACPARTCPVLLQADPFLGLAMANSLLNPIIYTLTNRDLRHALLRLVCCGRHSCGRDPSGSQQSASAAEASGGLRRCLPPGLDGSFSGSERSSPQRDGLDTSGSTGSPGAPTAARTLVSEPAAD

In general, IC50 refers to the concentration that inhibits the measured activity by half. Turning to `CCc1cccc(C)c1NC(=O)c1ccc(-c2cc(OC)ccc2OC)o1`, the half-maximal inhibitory concentration (IC50) is 0.513 µM (active) in assay [1]; > 25 µM (inactive) in [2]; > 25 µM (inactive) in assay [3]; > 25 µM (inactive) in assay [4]; > 25 µM (inactive) in [5].
In general, EC50 refers to the midpoint of the concentration-response curve. Take `Cc1c(Cl)cccc1N=C(S)NCCC(c1ccccc1)c1ccccc1`: the IC50 in [6] is 8.34 µM (active); in assay [7] it was 29 µM (active); in [9], 42.4 µM (active). The EC50 was > 150 µM (not active) in the assay with Streptococcus, 8.52 µM (active) in [8] and 3.76 µM (active) at Streptokinase A.
What is called AC50 is the midpoint of the concentration-response curve, whichever way the signal moves. Turning to `CC(=O)OC1C2(CC3N4C(=O)C5(CO)SSC4(CC31O)C(=O)N5C)OC(C)C(C)(C)C2=O` (stereo unspecified), the EC50 on Hexokinase-1 was > 80 µM (inactive); on Hexokinase HKDC1, 0.212 µM (active). Besides, the half-maximal activity concentration (AC50) in [10] is 1.06 µM (active); in assay [12] it was 5.61 µM (active). In addition, the half-maximal inhibitory concentration (IC50) in assay [11] was 3.64 µM (active).
On to `O=C(Nc1nc2ccccc2n1Cc1ccc(Cl)cc1)c1ccc(Cl)cc1`, for which the IC50 (on Tumor necrosis factor; in [13]; in the assay with HEK293; in [14]) was > 20 µM (inactive) each time.
Consider `Cc1cc(C)c(NC(=O)C2CCCCC2)c(C)c1`, for which the concentration for a half-maximal effect (EC50) in assay [15] is 1.57 µM (active).
